Experiments:
[1] = test system: mononuclear phagocytes; test: ApoA-I mediated cellular cholesterol efflux (14C-cholesterol, E-LDL loaded monocytes); format: cell-based, Human; conditions: men and women, percent of basal unstimulated efflux
Description: Cellular Lipid Efflux. Human peripheral blood cells were isolated from lithium-heparin treated blood samples of adult, healthy volunteers. The peripheral blood mononuclear cell fraction was separated by density gradient centrifugation over Ficoll-Histopaque […] (Sigma). Cells positive for CD2, CD7, CD16, CD19 and CD56 were removed by appropriate magnetic beads (Dynal) leaving > 80% pure monocytes. Isolated monocytes were then cultured at a density of 1.5x10^5 cells/mL in polystyrene culture dishes (100x15mm Petri dish, Falcon) in a serum-free macrophage medium (Macrophage-SFM, Gibco Life Technologies) supplemented with 50ng/mL human recombinant M-CSF (R&D Systems). After an overnight incubation cells were cholesterol loaded for 24 hrs by addition of enzymatically modified LDL (E-LDL; 40 µg/ml), which was prepared as previously described (31). […] Lipids were extracted by liquid extraction according to the method of Bligh and Dyer (13). ^3H and ^14C radioactivities of the total lipid extracts were measured by liquid scintillation counting in order to distinguish between ^3H labeled phospholipids and ^14C-cholesterol. Lipid efflux was calculated as percentage of disintegrations per minute (dpm) in medium divided by the sum of dpm recovered from medium and cells. […]

[2] = test system: mononuclear phagocytes; test: ApoA-I mediated cellular phospholipid efflux (3H-choline labelled phospholipids); format: cell-based, Human; conditions: men and women, percent of basal unstimulated efflux
Description: Cellular Lipid Efflux. Human peripheral blood cells were isolated from lithium-heparin treated blood samples of adult, healthy volunteers. The peripheral blood mononuclear cell fraction was separated by density gradient centrifugation over Ficoll-Histopaque […] (Sigma). Cells positive for CD2, CD7, CD16, CD19 and CD56 were removed by appropriate magnetic beads (Dynal) leaving > 80% pure monocytes. Isolated monocytes were then cultured at a density of 1.5x10^5 cells/mL in polystyrene culture dishes (100x15mm Petri dish, Falcon) in a serum-free macrophage medium (Macrophage-SFM, Gibco Life Technologies) supplemented with 50ng/mL human recombinant M-CSF (R&D Systems). After an overnight incubation cells were cholesterol loaded for 24 hrs by addition of enzymatically modified LDL (E-LDL; 40 µg/ml), which was prepared as previously described (31). The incubation medium was further supplemented with ^14C-cholesterol (1.5 µCi/ml) and ^3H-choline (10µCi/ml) in order to label cellular cholesterol and choline containing phospholipids. In a subset of experiments cells were stimulated with 10 µM forskolin during the labeling period. After 24 hrs monocytes were washed and incubated for 17 hrs with or without 10 µg/ml ApoA-I (Sigma) in macrophage medium containing 0.1 % bovine serum albumin and 50ng/mL M-CSF. After incubation the media were removed and centrifuged at 800 x g to precipitate any detached cells. Cells were lysed in 0.2% SDS. Lipids were extracted by liquid extraction according to the method of Bligh and Dyer (13). ^3H and ^14C radioactivities of the total lipid extracts were measured by liquid scintillation counting in order to distinguish between ^3H labeled phospholipids and ^14C-cholesterol. Lipid efflux was calculated as percentage of disintegrations per minute (dpm) in medium divided by the sum of dpm recovered from medium and cells. The ApoA-I specific efflux is expressed a percent of basal unstimulated efflux observed in serum-free macrophage medium without ApoA-I.

[3] = test system: human fibroblasts; test: Cell cycle arrest in fibroblasts; format: cell-based; conditions: result in words
[4] = test system: neutral sphingomyelinase; test: Ceramide formation from sphingomyelin; format: cell-based; conditions: result in words
[5] = test system: IL-1β secretion; test: IL-1β processing and secretion; format: cell-based; conditions: result in words

ceramide formation from sphingomyelin mediated by neutral sphingomyelinase [4]	Caspase I mediated processing of pro-IL-1β [5]	Compound	Cholesterol efflux: ApoA-I [10 µg/ml]+ 24 h pretreatment with forskolin [10 µM] ([1]; 596A/A)	Cholesterol efflux: ApoA-I [10 µg/ml]+ 24 h pretreatment with forskolin [10 µM] ([1]; wt/wt 596G/G, 2589A/A)	Phospholipid efflux: ApoA-I [10 µg/ml]+ 24 h pretreatment with forskolin [10 µM] ([2]; 596A/A)	Phospholipid efflux: ApoA-I [10 µg/ml]+ 24 h pretreatment with forskolin [10 µM] ([2]; 2589G/G)	Phospholipid efflux: ApoA-I [10 µg/ml]+ 24 h pretreatment with forskolin [10 µM] ([2]; wt/wt 596G/G, 2589A/A)	G2-phase cell cycle arrest [3]	release of mature IL-1β [5]
		C=C[C@@]1(C)CC(=O)[C@]2(O)[C@@]3(C)[C@@H](O)CCC(C)(C)[C@@H]3[C@H](O)[C@H](OC(C)=O)[C@@]2(C)O1 [forskolin]	126.7 ± 37.4%	121.8 ± 16.4%	136.7 ± 12.8%	124.5 ± 25.8%	135.4 ± 20.2%		
inhibits	inhibits	COc1ccc(Cl)cc1C(=O)NCCc1ccc(S(=O)(=O)NC(=O)NC2CCCCC2)cc1 [glyburide]						releases human fibroblasts from G2-phase cell cycle arrest	inhibits

— patent publication EP1136554A1, “ATP binding cassette transporter 1 (ABC1) gene polymorphisms and uses thereof for the diagnosis and treatment of lipid disorders, cardiovascular diseases and inflammatory diseases” (Bayer Aktiengesellschaft, priority 2000, dated 2001)
